Data published in ChEMBL document CHEMBL3797052 (Eur J Med Chem, 2016).

Experiments:
[1] = Antiproliferative activity against human PC3 cells assessed as growth inhibition after 48 hrs by sulforhodamine B assay; type: functional; conditions: PC-3, 48 h
[2] = Antiproliferative activity against human PC3 cells assessed as cell growth at 10^-6 M after 48 hrs by sulforhodamine B assay; type: functional; conditions: PC-3, 48 h, read-out: Activity
[3] = Antiproliferative activity against human HOP62 cells assessed as cell growth at 10^-8 M after 48 hrs by sulforhodamine B assay; type: functional; conditions: HOP-62, 48 h, read-out: Activity
NCI-H23 = assay: Antiproliferative activity against human NCI-H23 cells assessed as cell growth at 10^-7 M after 48 hrs by sulforhodamine B assay; type: functional; conditions: NCI-H23, 48 h, read-out: Activity
[4] = Antiproliferative activity against human HCT116 cells assessed as cell growth at 10^-8 M after 48 hrs by sulforhodamine B assay; type: functional; conditions: HCT-116, 48 h, read-out: Activity
[5] = Antiproliferative activity against human SF295 cells assessed as cell growth at 10^-6 M after 48 hrs by sulforhodamine B assay; type: functional; conditions: SF-295, 48 h, read-out: Activity
Malme-3M = assay: Antiproliferative activity against human MALME-3M cells assessed as cell growth at 10^-8 M after 48 hrs by sulforhodamine B assay; type: functional; conditions: read-out: Activity
[6] = Antiproliferative activity against human HCT116 cells assessed as cell growth at 10^-7 M after 48 hrs by sulforhodamine B assay; type: functional; conditions: HCT-116, 48 h, read-out: Activity
A549 = assay: Antiproliferative activity against human A549/ATCC cells assessed as growth inhibition after 48 hrs by sulforhodamine B assay; type: functional; conditions: A549, 48 h; for CC50: read-out: LC50 (the source's name)
[7] = Antiproliferative activity against human MOLT4 cells assessed as growth inhibition after 48 hrs by sulforhodamine B assay; type: functional; conditions: MOLT-4, 48 h
MDA-MB-231 = assay: Antiproliferative activity against human MDA-MB-231 cells assessed as cell growth at 10^-6 M after 48 hrs by sulforhodamine B assay; type: functional; conditions: MDA-MB-231, 48 h, read-out: Activity
[8] = Antiproliferative activity against human SF268 cells assessed as cell growth at 10^-6 M after 48 hrs by sulforhodamine B assay; type: functional; conditions: SF-268, 48 h, read-out: Activity
SK-MEL-28 = assay: Antiproliferative activity against human SK-MEL-28 cells assessed as cell growth at 10^-4 M after 48 hrs by sulforhodamine B assay; type: functional; conditions: SK-MEL-28, 48 h, read-out: Activity
NCI-H522 [9] = assay: Antiproliferative activity against human NCI-H522 cells assessed as cell growth at 10^-7 M after 48 hrs by sulforhodamine B assay; type: functional; conditions: NCI-H522, 48 h, read-out: Activity
[10] = Antiproliferative activity against human OVCAR4 cells assessed as growth inhibition after 48 hrs by sulforhodamine B assay; type: functional; conditions: OVCAR-4, 48 h; for CC50: read-out: LC50 (the source's name)
[11] = Antiproliferative activity against human HOP62 cells assessed as cell growth at 10^-4 M after 48 hrs by sulforhodamine B assay; type: functional; conditions: HOP-62, 48 h, read-out: Activity
M14 = assay: Antiproliferative activity against human M14 cells assessed as cell growth at 10^-4 M after 48 hrs by sulforhodamine B assay; type: functional; conditions: M14, 48 h, read-out: Activity
SR = assay: Antiproliferative activity against human SR cells assessed as cell growth at 10^-4 M after 48 hrs by sulforhodamine B assay; type: functional; conditions: read-out: Activity
[12] = Antiproliferative activity against human OVCAR8 cells assessed as growth inhibition after 48 hrs by sulforhodamine B assay; type: functional; conditions: OVCAR-8, 48 h
ACHN = assay: Antiproliferative activity against human ACHN cells assessed as cell growth at 10^-6 M after 48 hrs by sulforhodamine B assay; type: functional; conditions: read-out: Activity
[13] = Antiproliferative activity against human Caki1 cells assessed as cell growth at 10^-8 M after 48 hrs by sulforhodamine B assay; type: functional; conditions: CAKI-1, 48 h, read-out: Activity
[14] = Antiproliferative activity against human SF539 cells assessed as cell growth at 10^-4 M after 48 hrs by sulforhodamine B assay; type: functional; conditions: SF-539, 48 h, read-out: Activity
CYP1A2 = target: T1, CYP1A2 (Homo sapiens, UniProt P05177); assay: Inhibition of recombinant human CYP1A2 assessed as remaining enzyme activity using CYP1A2 blue as substrate at 10 uM after 5 mins in presence of NADP by fluorescence plate reader analysis; type: ADME; conditions: recombinant human CYP1A2, probe CYP1A2 blue, read-out: Activity
T1 sequence (P05177 whole entry): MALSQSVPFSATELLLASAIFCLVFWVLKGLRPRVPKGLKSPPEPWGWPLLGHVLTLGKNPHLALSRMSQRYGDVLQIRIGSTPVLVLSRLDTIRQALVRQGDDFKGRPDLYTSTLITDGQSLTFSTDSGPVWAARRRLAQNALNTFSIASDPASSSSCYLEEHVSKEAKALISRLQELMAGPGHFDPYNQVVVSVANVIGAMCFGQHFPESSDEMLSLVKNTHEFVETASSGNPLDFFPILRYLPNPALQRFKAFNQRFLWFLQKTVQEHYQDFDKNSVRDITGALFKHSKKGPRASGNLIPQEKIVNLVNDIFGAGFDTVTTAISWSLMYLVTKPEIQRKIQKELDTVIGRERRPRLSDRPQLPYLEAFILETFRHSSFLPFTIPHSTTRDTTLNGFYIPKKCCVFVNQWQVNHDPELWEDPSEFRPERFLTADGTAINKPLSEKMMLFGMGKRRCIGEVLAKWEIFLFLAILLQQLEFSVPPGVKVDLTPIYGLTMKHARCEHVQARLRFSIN

[15] = Antiproliferative activity against human RXF393 cells assessed as cell growth at 10^-6 M after 48 hrs by sulforhodamine B assay; type: functional; conditions: RXF 393, 48 h, read-out: Activity
NCI-H322M = assay: Antiproliferative activity against human NCI-H322M cells assessed as growth inhibition after 48 hrs by sulforhodamine B assay; type: functional
[16] = Antiproliferative activity against human SNB19 cells assessed as cell growth at 10^-6 M after 48 hrs by sulforhodamine B assay; type: functional; conditions: SNB-19, 48 h, read-out: Activity
[17] = Antiproliferative activity against human SNB19 cells assessed as cell growth at 10^-7 M after 48 hrs by sulforhodamine B assay; type: functional; conditions: SNB-19, 48 h, read-out: Activity
NCI-H522 [18] = assay: Antiproliferative activity against human NCI-H522 cells assessed as growth inhibition after 48 hrs by sulforhodamine B assay; type: functional; conditions: NCI-H522, 48 h
[19] = Antiproliferative activity against human HOP62 cells assessed as cell growth at 10^-7 M after 48 hrs by sulforhodamine B assay; type: functional; conditions: HOP-62, 48 h, read-out: Activity
[20] = Antiproliferative activity against human OVCAR4 cells assessed as cell growth at 10^-8 M after 48 hrs by sulforhodamine B assay; type: functional; conditions: OVCAR-4, 48 h, read-out: Activity

Compound: CNC(=O)c1cc(Oc2ccc3nc(NC(=O)Nc4ccc(Cl)c(C(F)(F)F)c4)sc3c2)ccn1
- GI50 [1]: 1.42 µM
- growth at 1 µM [2]: 71%
- growth at 0.01 µM [3]: 92%
- growth at 0.1 µM (NCI-H23): 97%
- growth at 0.01 µM [4]: 101%
- growth at 1 µM [5]: 90%
- growth at 0.01 µM (Malme-3M): 104%
- growth at 0.1 µM [6]: 99%
- GI50 (A549): 1.93 µM
- CC50 (A549): > 100 µM
- LC50 [7]: > 100 µM
- TGI [7]: > 100 µM
- growth at 1 µM (MDA-MB-231): 66%
- growth at 1 µM [8]: 78%
- growth at 100 µM (SK-MEL-28): 38%
- growth at 0.1 µM (NCI-H522 [9]): 95%
- GI50 [10]: 1.59 µM
- TGI [10]: 3.31 µM
- growth at 100 µM [11]: -34%
- growth at 100 µM (M14): 15%
- growth at 100 µM (SR): -11%
- GI50 [12]: 2.34 µM
- LC50 [12]: > 100 µM
- TGI [12]: 5.25 µM
- growth at 1 µM (ACHN): 93%
- growth at 0.01 µM [13]: 87%
- growth at 100 µM [14]: -49%
- activity at 5 min, 10 µM (CYP1A2): 106%
- growth at 1 µM [15]: 88%
- GI50 (NCI-H322M): 2.62 µM
- LC50 (50% lethal concentration) (NCI-H322M): > 100 µM
- growth at 1 µM [16]: 85%
- growth at 0.1 µM [17]: 100%
- GI50 (NCI-H522 [18]): 2.54 µM
- LC50 (concentration killing 50% of cells) (NCI-H522 [18]): > 100 µM
- TGI (NCI-H522 [18]): > 100 µM
- growth at 0.1 µM [19]: 95%
- growth at 0.01 µM [20]: 93%

Compound: CNC(=O)c1cc(Oc2ccc3nc(NC(=O)Nc4ccc(Cl)c(Cl)c4)sc3c2)ccn1
- GI50 [1]: 1.95 µM
- TGI [1]: 4.33 µM
- growth at 1 µM [2]: 92%
- growth at 0.01 µM [3]: 105%
- growth at 0.1 µM (NCI-H23): 92%
- growth at 0.01 µM [4]: 94%
- growth at 1 µM [5]: 79%
- growth at 0.01 µM (Malme-3M): 97%
- growth at 0.1 µM [6]: 97%
- GI50 (A549): 1.89 µM
- TGI (A549): 3.99 µM
- GI50 [7]: > 100 µM
- LC50 [7]: > 100 µM
- TGI [7]: > 100 µM
- growth at 1 µM (MDA-MB-231): 85%
- growth at 1 µM [8]: 95%
- growth at 100 µM (SK-MEL-28): -51%
- growth at 0.1 µM (NCI-H522 [9]): 100%
- GI50 [10]: 2.06 µM
- TGI [10]: 4.03 µM
- CC50 [10]: 7.89 µM
- growth at 100 µM [11]: -85%
- growth at 100 µM (M14): -46%
- growth at 100 µM (SR): 50%
- GI50 [12]: 2.36 µM
- LC50 [12]: 73.9 µM
- TGI [12]: 5.27 µM
- growth at 1 µM (ACHN): 88%
- growth at 0.01 µM [13]: 92%
- growth at 100 µM [14]: -72%
- activity at 5 min, 10 µM (CYP1A2): 104%
- growth at 1 µM [15]: 94%
- GI50 (NCI-H322M): 2.45 µM
- LC50 (50% lethal concentration) (NCI-H322M): > 100 µM
- growth at 1 µM [16]: 100%
- growth at 0.1 µM [17]: 110%
- GI50 (NCI-H522 [18]): 4.09 µM
- LC50 (concentration killing 50% of cells) (NCI-H522 [18]): > 100 µM
- TGI (NCI-H522 [18]): > 100 µM
- growth at 0.1 µM [19]: 112%
- growth at 0.01 µM [20]: 93%

Compound: CNC(=O)c1cc(Oc2ccc3nc(NC(=O)c4cc(C(F)(F)F)cc(C(F)(F)F)c4)sc3c2)ccn1
- GI50 [1]: 2.53 µM
- LC50 [1]: > 100 µM
- TGI [1]: 12.8 µM
- growth at 1 µM [2]: 80%
- growth at 0.01 µM [3]: 99%
- growth at 0.1 µM (NCI-H23): 95%
- growth at 0.01 µM [4]: 111%
- growth at 1 µM [5]: 83%
- growth at 0.01 µM (Malme-3M): 94%
- growth at 0.1 µM [6]: 104%
- GI50 (A549): 3.99 µM
- TGI (A549): 14.6 µM
- CC50 (A549): 61.2 µM
- GI50 [7]: 2.61 µM
- LC50 [7]: > 100 µM
- TGI [7]: 12.4 µM
- growth at 1 µM (MDA-MB-231): 114%
- growth at 1 µM [8]: 79%
- growth at 100 µM (SK-MEL-28): -13%
- growth at 0.1 µM (NCI-H522 [9]): 109%
- GI50 [10]: 3.12 µM
- TGI [10]: 27.2 µM
- CC50 [10]: > 100 µM
- growth at 100 µM [11]: -71%
- growth at 100 µM (M14): -38%
- growth at 100 µM (SR): -23%
- GI50 [12]: 3.06 µM
- LC50 [12]: 69.9 µM
- TGI [12]: 13 µM
- growth at 1 µM (ACHN): 96%
- growth at 0.01 µM [13]: 101%
- growth at 100 µM [14]: -61%
- activity at 5 min, 10 µM (CYP1A2): 98.3%
- growth at 1 µM [15]: 97%
- GI50 (NCI-H322M): 3.7 µM
- LC50 (50% lethal concentration) (NCI-H322M): > 100 µM
- TGI (NCI-H322M): 19.8 µM
- growth at 1 µM [16]: 96%
- growth at 0.1 µM [17]: 103%
- GI50 (NCI-H522 [18]): 2.82 µM
- LC50 (concentration killing 50% of cells) (NCI-H522 [18]): 64.1 µM
- TGI (NCI-H522 [18]): 8.77 µM
- growth at 0.1 µM [19]: 92%
- growth at 0.01 µM [20]: 95%
